Molecular target: T1, 3-oxo-5-alpha-steroid 4-dehydrogenase 2 (Homo sapiens, UniProt P31213)
T1 sequence (P31213 whole entry): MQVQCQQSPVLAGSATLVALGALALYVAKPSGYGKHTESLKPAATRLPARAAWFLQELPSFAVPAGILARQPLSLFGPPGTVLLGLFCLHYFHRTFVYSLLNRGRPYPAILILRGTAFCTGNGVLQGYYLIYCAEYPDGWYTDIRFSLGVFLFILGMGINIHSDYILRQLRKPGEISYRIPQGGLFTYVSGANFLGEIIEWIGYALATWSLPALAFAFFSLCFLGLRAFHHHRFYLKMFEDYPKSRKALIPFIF
Assay: 5α-R2 Activity Assay
Procedure: The activity of the isozyme 5α-R type 2 was assayed as previously described [Hirosumi et al., J. Steroid Biochem. Mol. Biol., 52:357-363; Bratoeff et al., J. Steroid Biochem. Mol. Biol., 107:48-56].

| SMILES | IC50 [nM] |
| --- | --- |
| C[C@]12CC[C@H](OC(=O)c3ccc(F)cc3)CC1=CCC1C2CC[C@]2(C)C(=O)CCC12 (stereo partly drawn) [17-Oxaandrost-5-ene-3β-yl-p-fluorobenzoate (2)] | 3.58 |
| C[C@]12CC[C@H](OC(=O)c3ccccc3)CC1=CCC1C2CC[C@]2(C)C(=O)CCC12 (stereo partly drawn) [17-Oxaandrost-5-ene-3β-yl-benzoate (1)] | > 100000 |

Source: BindingDB's records for doi:10.3109/14756366.2012.729827 (National University of Mexico City, 2013)
